Molecular target: recombinant USP30 (amino acids 57-517 of the human sequence) (Homo sapiens (Human), UniProt Q70CQ3)
Experiment: In vitro USP30 biochemical assay (Ubiquitin-Rhodamine substrate)
Details: fluorescence
Protocol: In vitro biochemical assay to establish the potency of compounds for USP30 inhibition: a 384-well plate assay using a fluorophore tagged substrate of USP30 was used for in vitro screening of compounds. Each compound was tested at
10 different concentrations (0.5 to 10,000 nM) in duplicate wells. […] Data were analyzed using Graph Pad Prism software with a four-parameter (floating slope) fit to log concentration data to determine IC50s.

[1] = 1.5 nM recombinant USP30, 25 nM Ubiquitin-Rhodamine
[2] = […] recombinant USP30, 25 nM Ubiquitin-Rhodamine

recombinant USP30 (amino acids 57-517 of the human sequence), sequence (Q70CQ3 57-517): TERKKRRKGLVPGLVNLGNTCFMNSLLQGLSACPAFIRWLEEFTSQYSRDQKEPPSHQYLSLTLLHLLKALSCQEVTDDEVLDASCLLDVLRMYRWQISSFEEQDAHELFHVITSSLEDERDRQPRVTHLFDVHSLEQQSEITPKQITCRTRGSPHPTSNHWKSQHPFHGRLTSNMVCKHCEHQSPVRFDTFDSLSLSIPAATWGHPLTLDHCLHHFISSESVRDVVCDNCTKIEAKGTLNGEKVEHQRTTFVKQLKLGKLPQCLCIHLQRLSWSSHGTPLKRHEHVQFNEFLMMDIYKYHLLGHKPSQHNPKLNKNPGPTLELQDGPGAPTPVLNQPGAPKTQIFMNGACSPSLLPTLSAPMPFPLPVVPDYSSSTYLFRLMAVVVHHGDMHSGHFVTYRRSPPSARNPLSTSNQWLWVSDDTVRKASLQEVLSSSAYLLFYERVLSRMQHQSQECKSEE

Row | Compound | IC50 [1] | IC50 [2]
1 | COc1cc(NC(=O)[C@H](CC2CCOCC2)NC(=O)c2ccc(F)cc2)cnc1S(=O)(=O)NC1CCC1 [Compound I-81] | 0.05 to 1 µM | –
2 | COc1cc(NC(=O)[C@H](Cc2ccccc2)NC(=O)c2ccc(F)cc2)c(Cl)cc1S(=O)(=O)NC(C)(CO)CO [Compound I-142] | 1 to 10 µM | –
3 | COC[C@H](NC(=O)c1ccc(F)cc1)C(=O)Nc1ccc(S(=O)(=O)NC(C)(C)CN2CCOCC2)cc1 [Compound I-33] | 1 to 10 µM | –
4 | N#CN1CCC(NC(=O)[C@H](Cc2ccccc2)NC(=O)c2ccc(F)cc2)CC1 [Compound I-124] | – | > 10 µM
5 | CC(C)(C)NS(=O)(=O)c1ccc(NC(=O)[C@@H]2C[C@@H](c3ccccc3)CN2C(=O)c2ccc(F)cc2)cc1 [Compound I-49, (2S,4S)—N-(4-(N-(tert-butyl)sulfamoyl)phenyl)-1-(4-fluorobenzoyl)-4-phenylpyrrolidine-2-carboxamide] | 0.05 to 1 µM | –
6 | CC(C)(C)NS(=O)(=O)c1ccc(NC(=O)[C@@H](CC2COC2)NC(=O)c2ccc(F)cc2)cc1 [Compound I-39, (R)—N-(1-((4-(N-(tert-butyl)sulfamoyl)phenyl)amino)-3-(oxetan-3-yl)-1-oxopropan-2-yl)-4-fluorobenzamide] | – | > 10 µM
7 | COc1cc(NC(=O)[C@H](CC2CCOCC2)NC(=O)c2ccc(F)cc2)cnc1S(=O)(=O)NC(C)(C)C [Compound I-75] | 0.05 to 1 µM | –
8 | COc1cc(NC(=O)[C@H](CC2CCN(C)CC2)NC(=O)c2ccc(F)cc2)cnc1S(=O)(=O)NC(C)(C)CO [Compound I-100] | 1 to 10 µM | –
9 | CN(C(=O)c1ccc(F)cc1)[C@@H](Cc1ccccc1)C(=O)Nc1ccc(S(=O)(=O)NCc2ccnn2C)cc1 [Compound I-229] | 1 to 10 µM | –
10 | Cn1cnc(CNS(=O)(=O)c2ccc(NC(=O)[C@H](Cc3ccccc3)NC(=O)c3ccc(F)cc3)cc2)c1 [Compound I-238] | – | < 0.05 µM
11 | CC(C)(CO)NS(=O)(=O)c1ccc(NC(=O)[C@@H]2C[C@@H](C3CCCCC3)CN2C(=O)c2ccc(F)cc2)cn1 [Compound I-258] | 1 to 10 µM | –
12 | CC(C)(CN1CCOCC1)NS(=O)(=O)c1ccc(NC(=O)[C@H](CO)NC(=O)c2ccc(F)cc2)cc1 [Compound I-36, (S)-4-fluoro-N-(3-hydroxy-1-((4-(N-(2-methyl-1-morpholinopropan-2-yl)sulfamoyl)phenyl)amino)-1-oxopropan-2-yl)benzamide] | – | > 10 µM
13 | N#CCN1CC[C@@H](NC(=O)[C@H](Cc2ccccc2)NC(=O)c2ccc(F)cc2)C1 [Compound I-154] | – | > 10 µM
14 | CC(C)(CO)NS(=O)(=O)c1ccc(NC(=O)[C@@H]2C[C@@H](O)CN2C(=O)c2ccc(F)cc2)cc1 [Compound I-275] | – | > 10 µM
15 | Cn1nccc1CNS(=O)(=O)c1ccc(NC(=O)[C@H](CC2CCNCC2)NC(=O)c2ccc(F)cc2)cc1 [Compound I-224] | 0.05 to 1 µM | –
16 | CC(C)(C)NS(=O)(=O)c1ccc(NC(=O)[C@H](Cc2ccccc2)c2nnc(-c3ccc(F)cc3)o2)cc1 (stereo in doubt) [Compound I-56, N-(4-(N-(tert-butyl)sulfamoyl)phenyl)-2-(5-(4-fluorophenyl)-1,3,4-oxadiazol-2-yl)-3-phenylpropanamide] | 1 to 10 µM | –
17 | CN1CCC(C[C@H](NC(=O)c2ccc(F)cc2)C(=O)Nc2ccc(S(=O)(=O)NC3COC3)nc2)CC1 [Compound I-104] | 1 to 10 µM | –
18 | CC(C)(C)NS(=O)(=O)c1ccc(NC(=O)[C@H](CC2CCN(c3ccccc3)CC2)NC(=O)c2ccc(F)cc2)cc1 [Compound I-116] | – | < 0.05 µM
19 | CN1CCN(C(=O)N[C@@H](Cc2ccccc2)C(=O)Nc2ccc(S(=O)(=O)NC(C)(C)C)cc2)CC1 [Compound I-180] | 1 to 10 µM | –
20 | CC1(NC(=O)[C@H](Cc2ccccc2)NC(=O)c2ccc(F)cc2)CN(C(=O)OCc2ccccc2)C1 [Compound I-252] | – | > 10 µM
21 | CO[C@H]1C[C@@H](C(=O)Nc2ccc(S(=O)(=O)NC3COC3)cc2)N(C(=O)c2ccc(F)cc2)C1 [Compound I-289] | – | > 10 µM
22 | CC(C)(C)NS(=O)(=O)c1cccc2c(NC(=O)[C@H](Cc3ccccc3)NC(=O)N3CC4(COC4)C3)cccc12 [Compound I-197] | 0.05 to 1 µM | –

Row | Compound | IC50 [1] | IC50 [2]
23 | CC(C)C[C@H](NC(=O)c1ccc(F)cc1)C(=O)Nc1ccc(S(=O)(=O)NC2COC2)cc1 [Compound I-22] | 0.05 to 1 µM | –
24 | CC(C)(C)NS(=O)(=O)c1ccc(NC(=O)[C@H](Cc2ccccc2)NC(=O)N2CCOCC2)cc1 [Compound I-184] | 1 to 10 µM | –
25 | O=C(N[C@@H](Cc1ccccc1)C(=O)Nc1ccc(S(=O)(=O)NCc2nnc[nH]2)cc1)c1ccc(F)cc1 [Compound I-232] | 1 to 10 µM | –
26 | CC(C)C[C@H](NC(=O)c1ccc(F)cn1)C(=O)Nc1ccc(S(=O)(=O)NC(C)(C)C(F)(F)F)nc1 [Compound I-210] | 0.05 to 1 µM | –
27 | CN1CCC(NS(=O)(=O)c2ccc(NC(=O)[C@H](CC3CCOCC3)NC(=O)c3ccc(F)cc3)cn2)CC1 [Compound I-98] | 1 to 10 µM | –
28 | CC(C)(C)NS(=O)(=O)c1ccc(NC(=O)[C@H](Cc2ccccc2)NC(=O)c2ccc(F)cc2)cc1O [Compound I-63] | – | < 0.05 µM
29 | CC(C)C[C@H](NC(=O)c1ccc(F)cc1)C(=O)Nc1ccc(S(=O)(=O)NC(C)(C)C(F)(F)F)nc1 [Compound I-203] | 0.05 to 1 µM | –
30 | CC(C)(C)NS(=O)(=O)c1ccc(NC(=O)[C@H](Cc2ccccc2)NC(=O)N2CC3(COC3)C2)cc1 [Compound I-179] | 1 to 10 µM | –
31 | CO[C@H]1C[C@@H](C(=O)Nc2ccc(S(=O)(=O)NC(C)(C)C)cc2)N(C(=O)c2ccc(F)cc2)C1 [Compound I-290] | 1 to 10 µM | –
32 | CC(C)(CO)NS(=O)(=O)c1ccc(NC(=O)[C@H](CC2CCOCC2)NC(=O)c2ccc(F)cc2)cn1 [Compound I-74] | 0.05 to 1 µM | –
33 | COc1cc(NC(=O)[C@H](CC2CCNCC2)NC(=O)c2ccc(F)cc2)ccc1S(=O)(=O)NC1CCOCC1 [Compound I-135] | 0.05 to 1 µM | –
34 | N#CC1CC[C@@H](NC(=O)[C@H](Cc2ccccc2)NC(=O)c2ccc(F)cc2)C1 (stereo partly shown) [Compound I-246] | – | > 10 µM
35 | CC(C)(C)NS(=O)(=O)c1ccc(NC(=O)C(CC(N)=O)NC(=O)c2ccc(F)cc2)cc1 (stereo not shown) [Compound I-244] | – | > 10 µM
36 | O=C(N[C@@H](CC1CCOCC1)C(=O)Nc1ccc(S(=O)(=O)NC2COC2)nc1)c1ccc(F)cc1 [Compound I-5] | 0.05 to 1 µM | –
37 | CC(C)(C)NS(=O)(=O)c1ccc(NC(=O)[C@H](Cc2ccccc2)NC(=O)c2cncnc2)cc1 [Compound I-188] | 0.05 to 1 µM | –
38 | CC(C)(CO)NS(=O)(=O)c1ccc(NC(=O)[C@@H]2C[C@H](O)CN2C(=O)c2ccc(F)cc2)cc1 [Compound I-280] | – | > 10 µM
39 | COc1cc(NC(=O)[C@H](CC(C)C)NC(=O)c2ccc(F)cc2)ccc1S(=O)(=O)NC(C)(C)CO [Compound I-14] | 0.05 to 1 µM | –
40 | CC(C)C[C@@H](NC(=O)c1ccc(F)cc1)C(=O)Nc1ccc(S(=O)(=O)NC(C)(C)CCO)cc1 [Compound I-21, (R)-4-fluoro-N-(1-((4-(N-(4-hydroxy-2-methylbutan-2-yl)sulfamoyl)phenyl)amino)-4-methyl-1-oxopentan-2-yl)benzamide] | – | > 10 µM
41 | CC(C)(C)NS(=O)(=O)c1ccc(NC(=O)[C@@H]2C[C@@H](C3CCCCC3)CN2C(=O)c2ccc(F)cc2)cn1 [Compound I-260] | 0.05 to 1 µM | –
42 | CC(=O)O[C@H]1C[C@@H](C(=O)Nc2ccc(S(=O)(=O)NC(C)(C)C)cc2)N(C(=O)c2ccc(F)cc2)C1 [Compound I-285] | 1 to 10 µM | –
43 | CC(C)C[C@H](NC(=O)c1ccc(F)cc1)C(=O)Nc1ccc(S(=O)(=O)NC(C)(C)CO)nc1 [Compound I-17] | 0.05 to 1 µM | –
